Reference: patent US12036282B2, “Liposomal system for drug delivery” (NewSouth Innovations PTY Limited, priority 2017, dated 2024)
{FAM} = fluorescein (FAM) label

Test: Agarose gel electrophoresis of oligonucleotide after X-ray exposure
Format: physicochemical
Conditions: X-ray 1, 2 and 4 Gy, compared with the control
Protocol: The PC12, HCT116 and CCD 841 CoN cells (1-4×10^4/mL) were, respectively, grown on 96-well plates in a culture medium with 10% FBS for 24 hr. For liposome and LipoDox treatment experiments, the PC12 cells and CCD 841 CoN cells were, respectively, incubated with different liposome and LipoDox samples for 4 hours, followed by incubation in a fresh medium for further 24 hours. For the X-ray exposure experiments, all three types of cells were radiated with 4 Gy, followed by incubation in a fresh medium for further 24 and 48 hours. Cell viability was assessed by using the same method as described above. For X-ray treatment of pure DNA molecules and mixture of DNA and verteporfin, 50 μL of antisense oligonucleotide solution (10 μg/mL) and 50 μL of mixture solution (10 μg/mL DNA and 32 μg/mL verteporfin) was respectively exposed to X-ray radiation with different dosage (1, 2 and 4 Gy). After treatment, the gel electrophoresis was carried out in 1.2% agarose gel in Tris-acetate-EDTA (TAE) buffer at 95 V for 45 min. The gel was stained with SYBR Safe DNA Gel Stain (Thermo Fisher) and photographed under UV light using a Bio-Rad imaging system.

5′-TGGTGCTTCCCAGCCACTAT-3′ (SEQ ID NO:1) (3' {FAM}, sugars by position and backbone not given here) [DNA molecules, antisense oligonucleotide against PAC1R gene, 10 μg/mL solution exposed to X-ray]
damage to oligonucleotide after X-ray radiation (gel electrophoresis): did not cause obvious damage
